A short description of series [1]: Toxicity in Balb/c mouse implanted with mouse 4T1 cells assessed as kidney lesions at 50 mg/kg administered intratumorally every four days for 14 days in the presence of liquid cyanoacrylate by H&E staining based histopathological analysis. It counts as organism-based. Conditions: in vivo, other, 336 h, route it(Intratumoral), time 14 day.
Series [2] can be described thus: Toxicity in Balb/c mouse xenografted with mouse 4T1 cells assessed as kidney lesions at 200 mg/kg administered topically over the tumor surface every two days for 14 days in the presence of cyanoacrylate by H&E staining based histopathological analysis. Conditions: in vivo, topical_or_ocular, 336 h, route top, time 14 day. It counts as organism-based.
In series [3] the test system is MDA-MB-231. Kind of series: Induction of apoptosis in human MDA-MB-231 cells assessed as increase in Bcl-2 protein expression at 1 uM incubated for 24 hrs by Western blot analysis. It is filed as functional, cell-based.
The test system of series [4] is 4T1. Kind of series: Antitumor activity against mouse 4T1 cells implanted in Balb/c mouse assessed as nuclei disappearance at 50 mg/kg administered intratumorally every four days for 14 days in the presence of liquid cyanoacrylate. Conditions: route it(Intratumoral), time 14.0 day. It counts as functional, organism-based.
The nature of series [5]: Acute toxicity in mouse assessed as death rate ratio at 378 mg/kg, ip measured over 14 days. Conditions: in vivo, 336 h, time 14 day. It counts as organism-based.
The test system of a further series is Mus musculus. Kind of series: Protection of Balb/c mouse spleen implanted with mouse 4T1 cells at 50 mg/kg administered intratumorally every four days for 14 days in the presence of liquid cyanoacrylate. Conditions: route it(Intratumoral), time 14.0 day. It is filed as functional, organism-based.
Series [6] deals with 4T1. Briefly: Antitumor activity against mouse 4T1 cells implanted in Balb/c mouse assessed as tumor growth inhibition by measuring T/C ratio at 50 mg/kg administered intratumorally every four days for 14 days in the presence of liquid cyanoacrylate. It is filed as functional. Conditions: route it(Intratumoral), time 14 day.
Series [7] is described as follows: Drug metabolism in Balb/c mouse spleen implanted with mouse 4T1 cells assessed as 2-methyl hydroxylation of parent compound causing metabolite formation by LC-MS analysis. It is filed as ADME, tissue-based.
A short description of series [8]: Toxicity in Balb/c mouse implanted with mouse 4T1 cells assessed as effect on body weight at 50 mg/kg, ip administered every two days for 14 days. It counts as organism-based. Conditions: in vivo, 336 h, time 14 day.
Series [9] can be described thus: Drug metabolism in Balb/c mouse liver implanted with mouse 4T1 cells assessed as 2-methyl hydroxylation of parent compound causing metabolite formation by LC-MS analysis. It is filed as ADME, tissue-based.
The nature of series [10]: Drug metabolism in Balb/c mouse tumor implanted with mouse 4T1 cells assessed as dechlorination of parent compound causing metabolite formation by LC-MS analysis. It counts as ADME, tissue-based, Neoplasm.
Series [11] is described as follows: Toxicity in Balb/c mouse implanted with mouse 4T1 cells assessed as effect on body weight at 50 mg/kg administered intratumorally every four days for 14 days in the presence of liquid cyanoacrylate. It counts as organism-based. Conditions: in vivo, other, 336 h, route it(Intratumoral), time 14 day.
Series [12] relates to MDA-MB-231. Briefly: Antiproliferative activity against human MDA-MB-231 cells assessed as inhibition of cell growth by MTT assay. It is filed as functional, cell-based.
The nature of series [13]: Toxicity in Balb/c mouse xenografted with mouse 4T1 cells assessed as liver lesions at 200 mg/kg administered topically over the tumor surface every two days for 14 days in the presence of cyanoacrylate by H&E staining based histopathological analysis. It is filed as organism-based. Conditions: in vivo, topical_or_ocular, 336 h, route top, time 14 day.
Series [14] can be described thus: Toxicity in Balb/c mouse implanted with mouse 4T1 cells assessed as kidney lesions at 50 mg/kg, ip administered every two days for 14 days by H&E staining based histopathological analysis. It is filed as organism-based. Conditions: in vivo, 336 h, time 14 day.
Series [15] is described as follows: Drug metabolism in Balb/c mouse spleen implanted with mouse 4T1 cells assessed as dechlorination of parent compound causing metabolite formation by LC-MS analysis. It counts as ADME, tissue-based.
Series [16] has as its system 4T1. Kind of series: Antitumor activity aginst mouse 4T1 cells implanted in Balb/c mouse assessed as nuclei shrinkage at 50 mg/kg, ip administered every two days for 14 days. It is filed as functional, organism-based. Conditions: time 14.0 day.

SMILES strings stand for the structures. pIC50: −log10 of the molar value. Activity calls are given as the source filed them. The calls are words filed in the database; no cut-off is given here.

`Cc1[nH]c2ccccc2c1C1=C(Cl)C(=O)C(Cl)=C(N2CCOCC2)C1=O`: the Activity entry in series [1], in series [2], in series [8], in [11], in series [13] and in [14] was “Non-Toxic” throughout. The outcome in the series with MDA-MB-231 [3], in the series on 4T1 [4], in the series with Mus musculus and with 4T1 [16] was Active. In series [5], the Ratio came out at 0.5. In the series with 4T1 [6], the T/C came out at 42%. Besides, the Drug metabolism entry in series [7], in [9], in series [10] and in series [15] was “Metabolite_Detected” each time. For the same compound, in the series with MDA-MB-231 [12], the negative logarithm of the IC50 (pIC50) is 7.15.

As usually defined, the T/C is the result in the treated group divided by that in the control group, in per cent. A word on the pIC50: it is the negative decadic logarithm of the IC50, by convention in mol/L.

(Values after ChEMBL document CHEMBL5137015, “Design, synthesis, and evaluation of a novel series of mono-indolylbenzoquinones derivatives for the potential treatment of breast cancer” (Eur J Med Chem, 2022).)
